Data published in US9113629B2, “4-amino-6-(4-substituted-phenyl)-picolinates and 6-amino-2-(4-substituted-phenyl)-pyrimidine-4-carboxylates and their use as herbicides” (DOW AGROSCIENCES LLC, priority 2013, dated 2015).
Read-outs that look alike come from different tables or passages of the source.

Columns and labels:
[1] = tested on: MATSS: scented mayweed (Matricaria chamomilla), pineappleweed (Matricaria matricarioides); assay: Post-emergent Test III, herbicidal activity in wheat and barley; type: in vivo; conditions: for pest or weed control at 35 g/ha / pest or weed control at 70 g/ha: Matricaria chamomilla, post-emergence, 504 h; for pest or weed control at 35 g/ha: 35 g ai/ha; for pest or weed control at 70 g/ha: 70 g ai/ha; for GR50 MATSS: dose for 50 percent growth reduction; for GR50 MATSS / GR80 MATSS: probit analysis; for GR80 MATSS: dose for 80 percent growth reduction
Procedure: (§1) Post-emergent Test III. Seeds of the desired test plant species were planted in Sun Gro MetroMix® 306 planting mixture, which typically has a pH of 6.0 to 6.8 and an organic matter content of about 30 percent, in plastic pots with a surface area of 103.2 square centimeters (cm^2). When required to ensure good germination and healthy plants, a fungicide treatment and/or other chemical or physical treatment was applied. The plants were grown for 7-36 days (d) in a greenhouse with an approximate 14 hour (h) photoperiod which was maintained at about 18° C. during the day and 17° C. during the night. Nutrients and water were added on a regular basis and supplemental lighting was provided with overhead metal halide 1000-Watt lamps as necessary. The plants were employed for testing when they reached the second or third true leaf stage.
(§2) A weighed amount, determined by the highest rate to be tested, of each test compound was placed in a 25 mL glass vial and was dissolved in 4 mL of a 97:3 v/v mixture of acetone and DMSO to obtain concentrated stock solutions. […] The concentrated stock solutions obtained were diluted with 20 mL of an aqueous mixture containing acetone, water, isopropyl alcohol, DMSO, Agri-Dex crop oil concentrate, and X-77 surfactant in a 48:39:10:1.5:1.5:0.02 v/v ratio to obtain spray solutions containing the highest application rates. Additional application rates were obtained by serial dilution of 12 mL of the high rate solution into a solution containing 2 mL of 97:3 v/v mixture of acetone and DMSO and 10 mL of an aqueous mixture containing acetone, water, isopropyl alcohol, DMSO, Agri-Dex crop oil concentrate, and X-77 surfactant in a 48:39:10:1.5:1.5:0.02 v/v ratio to obtain ½×, ¼×, ⅛× and 1/16× rates of the high rate. Compound requirements are based upon a 12 mL application volume at a rate of 187 liters per hectare (L/ha). Formulated compounds were applied to the plant material with an overhead Mandel track sprayer equipped with 8002E nozzles calibrated to deliver 187 L/ha over an application area of 0.503 square meters at a spray height of 18 inches (43 cm) above the average plant canopy height. Control plants were sprayed in the same manner with the solvent blank.
(§3) The treated plants and control plants were placed in a greenhouse as described above and watered by subirrigation to prevent wash-off of the test compounds. After 21 d, the condition of the test plants as compared with that of the untreated plants was determined visually and scored on a scale of 0 to 100 percent where 0 corresponds to no injury and 100 corresponds to complete kill.
(§4) By applying the well-accepted probit analysis as described by J. Berkson in Journal of the American Statistical Society, 48, 565 (1953) and by D. Finney in “Probit Analysis” Cambridge University Press (1952), herbicidal injury of a specific compound at various rates can be used to calculate GR20, GR50, GR80 and GR90 values, which are defined as growth reduction factors that correspond to the effective dose of herbicide required to provide plant growth reduction (GR) of 20 percent, 50 percent, 80 percent and 90 percent, respectively. Probit analysis was applied to data collected from multiple dose rates of individual compounds utilizing the procedures explained in the following examples. The analysis of those dose rates is captured in the following tables.

[2] = tested on: KCHSC: kochia (Kochia scoparia); assay: as above; type: in vivo; conditions: for pest or weed control at 35 g/ha / pest or weed control at 70 g/ha: Bassia scoparia, post-emergence, 504 h; for pest or weed control at 35 g/ha: 35 g ai/ha; for pest or weed control at 70 g/ha: 70 g ai/ha; for GR50 KCHSC: dose for 50 percent growth reduction; for GR50 KCHSC / GR80 KCHSC: probit analysis; for GR80 KCHSC: dose for 80 percent growth reduction
Procedure: as §1, §2, §3, §4

[3] = tested on: TRZSS: wheat, including spring and winter (Triticum aestivum); assay: as above; type: in vivo; conditions: for GR20 TRZSS: probit analysis; for pest or weed control at 35 g/ha / pest or weed control at 70 g/ha: Triticum aestivum, post-emergence, 504 h; for pest or weed control at 35 g/ha: 35 g ai/ha; for pest or weed control at 70 g/ha: 70 g ai/ha
Procedure: as §1, §2, §3, §4

[4] = tested on: HORSS: barley, including spring and winter (Hordeum vulgare); assay: as above; type: in vivo; conditions: for pest or weed control at 35 g/ha / pest or weed control at 70 g/ha: Hordeum vulgare, post-emergence, 504 h; for pest or weed control at 35 g/ha: 35 g ai/ha; for pest or weed control at 70 g/ha: 70 g ai/ha; for GR20 HORSS: probit analysis
Procedure: as §1, §2, §3, §4

[5] = Table 8, post-emergent, 21 d, read-out: Visual Growth Reduction (%) 21 Days After Application MATSS
[6] = Table 8, post-emergent, 21 d, read-out: Visual Growth Reduction (%) 21 Days After Application KCHSC
[7] = Table 8, dose for 20 percent growth reduction, 21 d
[8] = Table 8, post-emergent, 21 d, read-out: Visual Growth Reduction (%) 21 Days After Application TRZSS
[9] = Table 8, post-emergent, 21 d, read-out: Visual Growth Reduction (%) 21 Days After Application HORSS
[10] = 21 days after application, read-out: Visual Gorowth Reduction (%) 21 days After Application MATSS
[11] = 21 days after application, read-out: Visual Gorowth Reduction (%) 21 days After Application KCHSC
[12] = 21 days after application, read-out: Visual Gorowth Reduction (%) 21 days After Application TRZSS
[13] = dose for 20 percent growth reduction (crop), 21 days after application
[14] = 21 days after application, read-out: Visual Gorowth Reduction (%) 21 days After Application HORSS

Row | SMILES | pest or weed control at 35 g/ha [1, 5] | pest or weed control at 70 g/ha [1, 5] | GR50 MATSS ([1]; Table 8, 21 d) | GR80 MATSS ([1]; Table 8, 21 d) | pest or weed control at 35 g/ha [2, 6] | pest or weed control at 70 g/ha [2, 6] | GR50 KCHSC ([2]; Table 8, 21 d) | GR80 KCHSC ([2]; Table 8, 21 d) | GR20 TRZSS [3, 7] | pest or weed control at 35 g/ha [3, 8] | pest or weed control at 70 g/ha [3, 8] | pest or weed control at 35 g/ha [4, 9] | pest or weed control at 70 g/ha [4, 9] | GR20 HORSS [4, 7] | melting point | pest or weed control at 35 g/ha [1, 10] | pest or weed control at 70 g/ha [1, 10] | GR50 MATSS ([1]; 21 days after application) | GR80 MATSS ([1]; 21 days after application) | pest or weed control at 35 g/ha [2, 11] | also measured
1 | Nc1cc(-c2cc(F)c(Br)cc2F)nc(C(=O)O)c1Cl [Compound 3] | 95 to 100% | 95 to 100% | 4 g ai/ha | 11 g ai/ha | 95 to 100% | 95 to 100% | 2 g ai/ha | 8 g ai/ha | 1 g ai/ha | 85 to 94% | 85 to 94% | 85 to 94% | 95 to 100% | 1 g ai/ha | 172 to 174 °C | – | – | – | – | – | –
2 | Nc1c(F)c(-c2cc(F)c(I)cc2F)nc(C(=O)O)c1Cl [Compound 69] | – | – | – | – | – | – | – | – | – | – | – | – | – | – | 159 to 161 °C | 75 to 84% | 85 to 94% | 5 g ai/ha | 29 g ai/ha | 85 to 94% | pest or weed control at 70 g/ha [2, 11]: 85 to 94%; GR50 KCHSC ([2]; 21 days after application): 5 g ai/ha; GR80 KCHSC ([2]; 21 days after application): 19 g ai/ha; pest or weed control at 35 g/ha [3, 12]: 85 to 94%; pest or weed control at 70 g/ha [3, 12]: 85 to 94%; GR20 TRZSS [3, 13]: 1 g ai/ha; pest or weed control at 35 g/ha [4, 14]: 85 to 94%; pest or weed control at 70 g/ha [4, 14]: 95 to 100%; GR20 HORSS [4, 13]: 1 g ai/ha
3 | COC(=O)c1nc(-c2ccc(I)c(F)c2)c(C)c(N)c1Cl [Compound 79, Methyl 4-amino-3-chloro-6-(3-fluoro-4-iodophenyl)-5-methylpicolinate] | 75 to 84% | 85 to 94% | 13 g ai/ha | 46 g ai/ha | 60 to 74% | 75 to 84% | 24 g ai/ha | 70 g ai/ha | 2 g ai/ha | 75 to 84% | 85 to 94% | 85 to 94% | 85 to 94% | 1 g ai/ha | 121 to 124 °C | – | – | – | – | – | –
4 | C=Cc1c(C(=O)O)nc(-c2ccc(C(F)(F)F)c(F)c2)c(F)c1N [Compound 86] | – | – | – | – | – | – | – | – | – | – | – | – | – | – | 120 to 122 °C | 60 to 74% | 60 to 74% | 22 g ai/ha | 85 g ai/ha | 75 to 84% | pest or weed control at 70 g/ha [2, 11]: 75 to 84%; GR50 KCHSC ([2]; 21 days after application): 12 g ai/ha; GR80 KCHSC ([2]; 21 days after application): 55 g ai/ha; pest or weed control at 35 g/ha [3, 12]: 60 to 74%; pest or weed control at 70 g/ha [3, 12]: 60 to 74%; GR20 TRZSS [3, 13]: 1 g ai/ha; pest or weed control at 35 g/ha [4, 14]: 30 to 44%; pest or weed control at 70 g/ha [4, 14]: 30 to 44%; GR20 HORSS [4, 13]: 14 g ai/ha
5 | Nc1cc(-c2ccc(I)cc2F)nc(C(=O)O)c1Cl [Compound 124] | 75 to 84% | 85 to 94% | – | 32 g ai/ha | 85 to 94% | 85 to 94% | 3 g ai/ha | 29 g ai/ha | 1 g ai/ha | 85 to 94% | 85 to 94% | 85 to 94% | 95 to 100% | 1 g ai/ha | 208.4 to 210.2 °C | – | – | – | – | – | –
